Consider 32 molecules from patent US20240059691A1 (KALVISTA PHARMACEUTICALS LIMITED, priority 2020, published 2024).

pIC50: −log10 of the molar value.

For experiment [1], the target named is Plasma Kallikrein (Homo sapiens (Human), UniProt P03952). Briefly: Determination of related protease inhibition: Plasma Kallikrein (fluorogenic substrate at Km). Format: biochemical. The conditions noted are these: 25° C., read-out: IC50 (human PKal). As for the experimental part: Determination of Related Protease Inhibition
Plasma Kallikrein, sequence (P03952 391-638): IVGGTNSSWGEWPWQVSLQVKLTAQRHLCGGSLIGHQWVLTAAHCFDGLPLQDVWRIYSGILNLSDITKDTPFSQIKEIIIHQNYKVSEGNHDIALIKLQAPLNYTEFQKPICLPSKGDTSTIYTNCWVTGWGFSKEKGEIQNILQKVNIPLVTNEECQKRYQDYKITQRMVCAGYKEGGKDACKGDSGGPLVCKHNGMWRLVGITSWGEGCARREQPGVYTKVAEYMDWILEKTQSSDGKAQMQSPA
Plasma Kallikrein, sequence (P03952 20-390 partner): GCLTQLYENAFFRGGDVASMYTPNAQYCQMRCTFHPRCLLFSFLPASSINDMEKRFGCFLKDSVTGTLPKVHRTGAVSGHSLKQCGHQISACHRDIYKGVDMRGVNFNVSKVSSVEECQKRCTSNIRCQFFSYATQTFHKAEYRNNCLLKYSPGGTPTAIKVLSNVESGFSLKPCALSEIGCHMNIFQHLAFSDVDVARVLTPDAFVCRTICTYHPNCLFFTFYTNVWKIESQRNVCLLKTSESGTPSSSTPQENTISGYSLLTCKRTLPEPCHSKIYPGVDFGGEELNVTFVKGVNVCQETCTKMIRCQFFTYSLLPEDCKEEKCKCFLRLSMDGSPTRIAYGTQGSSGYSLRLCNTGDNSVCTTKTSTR
In vitro inhibition of related proteases was determined using an ([…] assay based on standard literature methods (see e.g. Shori et al., Biochem. Pharmacol., 1992, 43, 1209; Bouckaert et al., European Journal of Medicinal Chemistry 110 (2016) 181). Human serine protease enzymes Plasma Kallikrein, KLK1, FXa, Plasmin, Thrombin and Trypsin were assayed for enzymatic activity using an appropriate fluorogenic substrate at Km concentration, FXIa at fixed substrate concentration of 100 μM, and various concentrations of the test compound. Protease activity was measured by monitoring the accumulation of liberated fluorescence from the substrate over […]. The linear rate of fluorescence increase per minute was expressed as percentage (%) activity. IC50 values were calculated as the concentration of inhibitor giving 50% inhibition of the uninhibited enzyme activity (100%).

Experiment [2] addresses Human Factor XIIa (Homo sapiens (Human), UniProt P00748). As to the kind of experiment: Determination of FXIIa inhibition (fluorogenic substrate H-DPro-Phe-Arg-AFC, IC50 assay). Format: biochemical. The conditions noted are these: substrate H-DPro-Phe-Arg-AFC at Km, 25° C.; class scale A-G. An outline of the steps: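 Human FXIIa incubated at 25° C with fluorogenic substrate H-DPro-Phe-Arg-AFC at its Km concentration and varying compound concentrations. Fluorescence release monitored over 5 min at 25° C; linear rate expressed as % of uninhibited activity to derive IC50.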

The term pIC50 denotes the IC50 on a negative log10 scale, so that one unit is a factor of ten.

Human Factor XIIa, sequence (P00748 373-615): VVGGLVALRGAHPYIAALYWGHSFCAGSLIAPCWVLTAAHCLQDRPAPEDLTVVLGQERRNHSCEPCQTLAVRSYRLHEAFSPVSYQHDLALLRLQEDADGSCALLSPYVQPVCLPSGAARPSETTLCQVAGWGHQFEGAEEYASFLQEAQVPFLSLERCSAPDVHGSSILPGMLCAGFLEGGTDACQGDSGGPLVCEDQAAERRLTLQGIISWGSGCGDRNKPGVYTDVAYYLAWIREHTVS

As for `COc1cccc2sc(NCc3ccc(NCC4CCN(C)CC4)nc3)nc12` [Example 1200, 4-methoxy-N-((6-(((1-methylpiperidin-4-yl)methyl)amino)pyridin-3-yl)methyl)benzo[d]thiazol-2-amine], the negative-log IC50 (pIC50) in experiment [1] is less than 4.00.
With `CN1CCC(CNc2ccc(CNc3ncnc4[nH]ccc34)cn2)CC1` [Example 1227, N-((6-(((1-methylpiperidin-4-yl)methyl)amino)pyridin-3-yl)methyl)-7H-pyrrolo[2,3-d]pyrimidin-4-amine], in experiment [1], the pIC50 is less than 4.00.
Regarding `CN1CCC(CNc2ccc(CNc3cc(C(=O)O)c4cnccc4c3)cn2)CC1` [Example 1203, 6-(((6-(((1-methylpiperidin-4-yl)methyl)amino)pyridin-3-yl)methyl)amino)isoquinoline-8-carboxylic acid], in experiment [1], the negative logarithm of the IC50 (pIC50) was less than 4.00.
As to `CN1CCC(CNc2ccc(CNc3ccc(N(C)C)nn3)cn2)CC1` [Example 1186, N3,N3-dimethyl-N6-((6-(((1-methylpiperidin-4-yl)methyl)amino)pyridin-3-yl)methyl)pyridazine-3,6-diamine], in experiment [1], the pIC50 was less than 4.00.
The same measure, in the same setting: as for `CN1CCC(CNc2ccc(CNc3cnc4ccccc4c3)cn2)CC1` [Example 1183, N-((6-(((1-methylpiperidin-4-yl)methyl)amino)pyridin-3-yl)methyl)quinolin-3-amine], the figure is less than 4.00; as for `CN1CCC(CNc2ccc(CNc3cnc4cccnn34)cn2)CC1` [Example 1187, N-((6-(((1-methylpiperidin-4-yl)methyl)amino)pyridin-3-yl)methyl)imidazo[1,2-b]pyridazin-3-amine], less than 4.00; as for `CN1CCC(COc2cc(CNc3ccc(N(C)C)nn3)ccn2)CC1` [Example 4458, N3,N3-dimethyl-N6-((2-((1-methylpiperidin-4-yl)methoxy)pyridin-4-yl)methyl)pyridazine-3,6-diamine], less than 4.00.
On the same count and under the same terms, under `CN1CCC(CNc2ccc(CNc3cc4c(=O)[nH]ccn4c3)cn2)CC1` [Example 1199, 7-(((6-(((1-methylpiperidin-4-yl)methyl)amino)pyridin-3-yl)methyl)amino)pyrrolo[1,2-a]pyrazin-1(2H)-one] stands less than 4.00; under `CN1CCC(CNc2ccc(CNc3nc4ccccc4n3C)cn2)CC1` [Example 1192, 1-methyl-N-((6-(((1-methylpiperidin-4-yl)methyl)amino)pyridin-3-yl)methyl)-1H-benzo[d]imidazol-2-amine], less than 4.00; under `CN1CCC(CNc2ccc(CNc3ccn4ccnc4c3)cn2)CC1` [Example 1222, N-((6-(((1-methylpiperidin-4-yl)methyl)amino)pyridin-3-yl)methyl)imidazo[1,2-a]pyridin-7-amine], less than 4.40.
The same measure, in the same setting: under `Cc1nnc(-c2ccc(NCc3ccnc(OCC4CCN(C)CC4)c3)cc2)o1` [Example 4457, 4-(5-methyl-1,3,4-oxadiazol-2-yl)-N-((2-((1-methylpiperidin-4-yl)methoxy)pyridin-4-yl)methyl)aniline] stands less than 4.00; under `CN1CCC(CNc2ccc(CNc3ccc(F)c4cnccc34)cn2)CC1` [Example 1214, 8-fluoro-N-((6-(((1-methylpiperidin-4-yl)methyl)amino)pyridin-3-yl)methyl)isoquinolin-5-amine], less than 4.00.
As to `CN1CCC(CNc2ccc(CNc3ccnc4c3ccn4C)cn2)CC1` [Example 1225, 1-methyl-N-((6-(((1-methylpiperidin-4-yl)methyl)amino)pyridin-3-yl)methyl)-1H-pyrrolo[2,3-b]pyridin-4-amine], the negative logarithm of the IC50 (pIC50) in experiment [1] is less than 4.00.
Still for that read-out and setting: as for `CN1CCC(CNc2ccc(CNc3ccc4cncc(N5CCC(F)(F)C5)c4c3)cn2)CC1` [Example 1260, 4-(3,3-difluoropyrrolidin-1-yl)-N-((6-(((1-methylpiperidin-4-yl)methyl)amino)pyridin-3-yl)methyl)isoquinolin-6-amine], the figure is less than 4.40; as for `CN1CCC(CNc2ccc(CNc3cnn(-c4cccc(Cl)c4)c3)cn2)CC1` [Example 1116, 5-(((1-(3-chlorophenyl)-1H-pyrazol-4-yl)amino)methyl)-N-((1-methylpiperidin-4-yl)methyl)pyridin-2-amine], less than 4.00.
For the molecule `CC(=O)c1cncc(NCc2ccnc(OCC3CCN(C)CC3)c2)c1` [Example 4455], the pIC50 in experiment [1] is less than 4.00.
With `COc1ccc2ncc(NCc3ccc(NCC4CCN(C)CC4)nc3)cc2c1` [Example 1177, 6-methoxy-N-((6-(((1-methylpiperidin-4-yl)methyl)amino)pyridin-3-yl)methyl)quinolin-3-amine], the pIC50 in experiment [1] was less than 4.00.
Take `COc1cccc2ccc(NCc3ccc(NCC4CCN(C)CC4)nc3)cc12` [Example 1178, 5-(((8-methoxynaphthalen-2-yl)amino)methyl)-N-((1-methylpiperidin-4-yl)methyl)pyridin-2-amine]: the pIC50 in experiment [1] was less than 4.00.
In the case of `Cc1ncc(NCc2ccc(NCC3CCN(C)CC3)nc2)c2cc[nH]c12` [Example 1244, 7-methyl-N-((6-(((1-methylpiperidin-4-yl)methyl)amino)pyridin-3-yl)methyl)-1H-pyrrolo[2,3-c]pyridin-4-amine], the pIC50 in experiment [1] was less than 4.00.
On to `Cc1nnc2n1CCC(COc1cc(CNc3ccc4c(N)nccc4c3)ccn1)C2` (centres unmarked) [Example 4413, 6-N-{[2-({3-methyl-5H,6H,7H,8H-[1,2,4]triazolo[4,3-a]pyridin-7-yl}methoxy)pyridin-4-yl]methyl}isoquinoline-1,6-diamine], for which the pIC50 in experiment [2] was 5.52 to 6.00.
The same measure, in the same setting: under `Nc1nccc2cc(NCc3ccnc(OCC4CCn5cc(C(F)(F)F)nc5C4)c3)ccc12` (centres unmarked) [Example 4266, 6-N-[(2-{[2-(trifluoromethyl)-5H,6H,7H,8H-imidazo[1,2-a]pyridin-7-yl]methoxy}pyridin-4-yl)methyl]isoquinoline-1,6-diamine] stands 5.52 to 6.00.
Take `CN1CCC(OCc2ccc(CNc3ccc4c(N)nccc4c3)c(F)c2)CC12COC2` (centres unmarked) [Example 2205, 6-N-({2-fluoro-4-[({5-methyl-2-oxa-5-azaspiro[3.5]nonan-8-yl}oxy)methyl]phenyl}methyl)isoquinoline-1,6-diamine]: the pIC50 in experiment [2] was 5.52 to 6.00.
On to `Nc1nccc2cc(NCc3cccc(CN4CCCC4)c3)ccc12` [Example 4287, 6-N-{[3-(pyrrolidin-1-ylmethyl)phenyl]methyl}isoquinoline-1,6-diamine], for which the pIC50 in experiment [2] is 4.40 to 5.00.
In experiment [2], `COCC1c2nnc(C(F)(F)F)n2CCN1c1cc(C)c(CNc2cccc3c(N)nccc23)cn1` (single isomer, unassigned) [Example 1343, (S*)-N5-((6-(8-(methoxymethyl)-3-(trifluoromethyl)-5,6-dihydro-[1,2,4]triazolo[4,3-a]pyrazin-7(8H)-yl)-4-methylpyridin-3-yl)methyl)isoquinoline-1,5-diamine] gave a pIC50 of 5.00 to 5.52.
Turning to `Nc1nccc2c(NCc3ccc(N4CCn5c(nnc5C(F)(F)F)C4)nc3)nccc12` [Example 1318, N1-((6-(3-(trifluoromethyl)-5,6-dihydro-[1,2,4]triazolo[4,3-a]pyrazin-7(8H)-yl)pyridin-3-yl)methyl)-2,6-naphthyridine-1,5-diamine], the pIC50 in experiment [2] was 4.40 to 5.00.
In experiment [2], `Cc1cc(N2CCn3c(nnc3C(F)(F)F)C2)ncc1CNc1ccc2c(N)nccc2c1` [Example 1333, N6-((4-methyl-6-(3-(trifluoromethyl)-5,6-dihydro-[1,2,4]triazolo[4,3-a]pyrazin-7(8H)-yl)pyridin-3-yl)methyl)isoquinoline-1,6-diamine] had a pIC50 of 6.52 to 7.00.
In the case of `CN1CCN(Cc2ccc(CNc3ccc4c(N)nccc4c3)cc2)CC1` [Example 1007, 6-N-({4-[(4-methylpiperazin-1-yl)methyl]phenyl}methyl)isoquinoline-1,6-diamine], in experiment [2], the pIC50 was 6.00 to 6.52.
With `CN1CCC(Cn2cc(CNc3ccc4c(N)nccc4c3)cn2)CC1` [Example 3253, N6-((1-((1-methylpiperidin-4-yl)methyl)-1H-pyrazol-4-yl)methyl)isoquinoline-1,6-diamine], the pIC50 in experiment [2] is 5.52 to 6.00.
In turn, `CC1c2nnc(C(F)(F)F)n2CCN1c1cnc(CNc2cccc3c(N)nccc23)c(F)c1` (centres unmarked) [Example 9008, N5-((3-fluoro-5-(8-methyl-3-(trifluoromethyl)-5,6-dihydro-[1,2,4]triazolo[4,3-a]pyrazin-7(8H)-yl)pyridin-2-yl)methyl)isoquinoline-1,5-diamine] gave a pIC50 in experiment [2] of 7.00 to 8.00.
Molecule `Nc1nccc2cc(NCc3ccc(OCC4CCn5cc(C(F)(F)F)nc5C4)nc3)ccc12` (centres unmarked) [Example 1028, N6-((6-((2-(trifluoromethyl)-5,6,7,8-tetrahydroimidazo[1,2-a]pyridin-7-yl)methoxy)pyridin-3-yl)methyl)isoquinoline-1,6-diamine] had a pIC50 in experiment [2] of 5.52 to 6.00.
In turn, `Cc1cc(N2CCn3c(nnc3C(F)(F)F)C2)ncc1CNc1ccnc2c1CCN2` [Example 1339, N-((4-methyl-6-(3-(trifluoromethyl)-5,6-dihydro-[1,2,4]triazolo[4,3-a]pyrazin-7(8H)-yl)pyridin-3-yl)methyl)-2,3-dihydro-1H-pyrrolo[2,3-b]pyridin-4-amine] had a pIC50 in experiment [2] of 4.40 to 5.00.
Molecule `Nc1ncc(Cl)c2cc(NCc3ccc(OCC4CCn5ccnc5C4)nc3)ccc12` (centres unmarked) [Example 1041, 4-Chloro-N6-[[6-(5,6,7,8-tetrahydroimidazo[1,2-a]pyridin-7-ylmethoxy)-3-pyridyl]methyl]isoquinoline-1,6-diamine] had a pIC50 in experiment [2] of 6.00 to 6.52.
